Experiments:
[1] = Metabolic (microsomal) stability assay, human liver microsomes; type: in vitro ADME; conditions: predicted clearance as percent of liver blood flow; human liver microsomes 1 mg/mL, 1 μM compound, 37° C.
Procedure: (§1) Metabolic (Microsomal) Stability Assay
(§2) The metabolic degradation of the test compound is assayed at 37° C. with pooled liver microsomes (mouse (MLM), rat (RLM) or human (HLM)). The final incubation volume of 74 μL per time point contains TRIS buffer (pH 7.5; 0.1 M), magnesium chloride (6.5 mM), microsomal protein (0.5 mg/mL for mouse/rat, 1 mg/mL for human specimens) and the test compound at a final concentration of 1 μM. Following a short preincubation period at 37° C., the reactions are initiated by addition of 8 μL beta-nicotinamide adenine dinucleotide phosphate, reduced form (NADPH, 10 mM) and terminated by transferring an aliquot into solvent after different time points. Additionally, the NADPH-independent degradation is monitored in incubations without NADPH, terminated at the last time point by addition of acetonitril. The quenched incubations are pelleted by centrifugation (1811 g, 5 min). An aliquot of the supernatant is assayed by LC-MS/MS for the amount of parent compound.
(§3) In vitro intrinsic clearance (CLint,in vitro) is calculated from the time course of the disappearance of the test drug during the microsomal incubation. Each plot is fitted to the first-order elimination rate constant as C(t)=C0*exp(−ke*t), where C(t) and C0 are the concentration of unchanged test drug at incubation time t and that at preincubation and ke is the disappearance rate constant of the unchanged drug. Subsequently, CLint,in vitro (μL·min^−1·amount protein) values are converted to CLint,in vitro (mL·min^−1·kg^−1) for the whole body. CLint,in vitro data are scaled up using physiological parameters. For better across species comparison the predicted clearance is expressed as percent of the liver blood flow [% QH] in the individual species. In general high stability (corresponding to low % QH) of the compounds across species is desired.

[2] = Metabolic (microsomal) stability assay, mouse liver microsomes; type: in vitro ADME; conditions: predicted clearance as percent of liver blood flow; mouse liver microsomes 0.5 mg/mL, 1 μM compound, 37° C.
Procedure: as §1, §2, §3

CDK8/cyclin C = CDK8/cyclin C (Homo sapiens (Human), UniProt P49336); experiment: CDK8 biochemical assay (TR-FRET Kinase Tracer 236 displacement); type: binding; conditions: 5 nM CDK8/cyclin C, 10 nM Kinase Tracer 236, 60 min
Chain of CDK8/cyclin C (P49336 whole entry): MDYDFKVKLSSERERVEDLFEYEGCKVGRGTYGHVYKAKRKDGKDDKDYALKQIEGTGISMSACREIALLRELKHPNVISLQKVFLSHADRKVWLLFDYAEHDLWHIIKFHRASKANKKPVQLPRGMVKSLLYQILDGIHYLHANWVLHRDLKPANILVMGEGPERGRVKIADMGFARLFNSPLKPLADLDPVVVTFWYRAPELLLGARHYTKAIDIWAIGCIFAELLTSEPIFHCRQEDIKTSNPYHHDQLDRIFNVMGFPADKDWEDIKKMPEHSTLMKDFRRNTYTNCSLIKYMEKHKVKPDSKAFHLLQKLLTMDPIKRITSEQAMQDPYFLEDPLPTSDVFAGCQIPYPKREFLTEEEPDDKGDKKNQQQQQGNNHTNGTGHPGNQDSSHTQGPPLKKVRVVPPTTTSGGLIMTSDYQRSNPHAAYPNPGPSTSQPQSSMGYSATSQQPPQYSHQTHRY
Chain of CDK8/cyclin C (P24863 whole entry partner): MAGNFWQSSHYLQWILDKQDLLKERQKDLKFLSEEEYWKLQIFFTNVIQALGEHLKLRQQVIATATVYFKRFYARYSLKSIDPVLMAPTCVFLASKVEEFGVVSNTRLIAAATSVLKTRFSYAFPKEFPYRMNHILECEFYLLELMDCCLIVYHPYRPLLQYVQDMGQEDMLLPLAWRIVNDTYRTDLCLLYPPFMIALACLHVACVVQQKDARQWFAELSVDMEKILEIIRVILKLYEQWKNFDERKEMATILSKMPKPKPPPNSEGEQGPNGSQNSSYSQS
Procedure: This assay is used to identify compounds which competitively interact with the binding pocket of the CDK8 kinase.
Assay-ready plates (ARPs; Proxiplate-384 PLUS, white, PerkinElmer) with compound solution in 100% DMSO are generated on an Access Labcyte Workstation with the Labcyte Echo 55x. 150 nL of compound solution are transferred per well in 11 concentrations in duplicates with serial 1:5 dilutions. The final DMSO concentration in the assay is 1%.
5 nM (final assay concentration) CDK8/cyclin C, 2 nM (final assay concentration) Biotin anti-His Tag Antibody and 2 nM (final assay concentration) LanthaScreen Eu-Streptavidin are mixed in assay buffer (50 mM HEPES pH 7.3, 10 mM MgCl2, 1 mM EGTA, 0.01% Brij-35, 0.05% BSA, 1 mM DTT) prior to use and kept at room temperature.
The assay runs on a fully automated robotic system. 10 μL of CDK8/cyclin C, Biotin anti-His Tag Antibody and LanthaScreen Eu-Streptavidin mix are dispensed into columns 1-24. 5 μL of 10 nM (final assay concentration) Kinase Tracer 236 solution in assay buffer are added to columns 1-23, 5 μL of assay buffer into column 24. Plates are kept at room temperature in a darkened incubator. After 60 min incubation time the signal is measured in a PerkinElmer Envision HTS Multilabel Reader using the TR-FRET specs from PerkinElmer.
Each plate contains 16 wells of a negative control (diluted DMSO instead of test compound; CDK8/cyclin C, Biotin anti-His Tag Antibody and LanthaScreen Eu-Streptavidin mix w Kinase Tracer 236; column 23) and 16 wells of a positive control (diluted DMSO instead of test compound; CDK8/cyclin C, Biotin anti-His Tag Antibody and LanthaScreen Eu-Streptavidin mix w/o Kinase Tracer 236; column 24). A known inhibitor of CDK8/cyclin C binding is used as internal control. IC50 values are calculated and analyzed in the MEGALAB IC50 application using a 4 parametric logistic model.
Table 4 includes IC50 values of example compounds determined using the above assay.

[3] = Metabolic (microsomal) stability assay, rat liver microsomes; type: in vitro ADME; conditions: predicted clearance as percent of liver blood flow; rat liver microsomes 0.5 mg/mL, 1 μM compound, 37° C.
Procedure: as §1, §2, §3

| HLM [% QH] [1] [% QH] | MLM [% QH] [2] [% QH] | IC50 (CDK8/cyclin C) [nM] | RLM [% QH] [3] [% QH] | Structure (SMILES) |
| --- | --- | --- | --- | --- |
| <24 | 28 | 1.7 | 41 | CN(C)C(=O)[C@@H]1CCN(c2ccc(Oc3ccnc4c(F)cncc34)cc2)C1 [I-019] |
| – | – | 1.6 | – | CN(C)C(=O)[C@H]1CCN(c2ccc(Oc3ccnc4ccncc34)cc2)C1 [I-006] |
| <24 | <24 | 2.9 | 25 | CC(=O)N[C@@H]1CCN(c2ccc(Oc3ccnc4c(F)cncc34)cc2)C1 [I-026] |
| <24 | <24 | 2.1 | <24 | CC(=O)N[C@H]1CCN(c2ccc(Oc3ccnc4c(F)cncc34)cc2)C1 [I-023] |
| – | – | 3.7 | – | Cc1cncc2c(Oc3ccc(N4CCCC4)cc3)ccnc12 [I-004] |
| – | – | 6.6 | – | CC(=O)N(C)CCOc1ccc(Oc2ccnc3c(F)cncc23)cc1 [I-038] |
| <24 | <24 | 1.4 | <24 | CN(CCO)C(=O)[C@@H]1CCN(c2ccc(Oc3ccnc4c(F)cncc34)cc2)C1 [I-020] |
| – | – | 3.6 | – | c1cc2nccc(Oc3ccc(N4CCCC4)cc3)c2cn1 [I-001] |
| 27 | <24 | 2.1 | <24 | CN(C)C(=O)C1CN(c2ccc(Oc3ccnc4c(F)cncc34)cc2)C1 [I-032] |
| – | – | 11.2 | – | Cc1nccc2nccc(Oc3ccc(N4CCCC4)cc3)c12 [I-005] |
| 27 | 45 | 2.6 | 32 | CN(C)C(=O)Cn1cc(-c2ccc(Oc3ccnc4ccncc34)cc2)cn1 [I-040] |
| <24 | <24 | 27 | 47 | O=C1CCCN1CCOc1ccc(Oc2ccnc3c(F)cncc23)cc1 [I-037] |
| <24 | 26 | 2.5 | <24 | CN(C)C(=O)Cn1cc(-c2ccc(Oc3ccnc4c(F)cncc34)cc2)cn1 [I-039, 2-{4-[4-(8-fluoro-[1,6]naphthyridin-4-yloxy)-phenyl]-pyrazol-1-yl}-N,N-dimethyl-acetamide] |
| – | – | 1.2 | – | CN1CCN(C(=O)[C@H]2CCN(c3ccc(Oc4ccnc5c(F)cncc45)cc3)C2)CC1 [I-016] |
| <24 | <24 | 8.3 | <24 | N[C@H]1CCN(c2ccc(Oc3ccnc4c(F)cncc34)cc2)C1 [I-022] |
| <24 | 58 | 14 | 60 | c1cc2nccc(Oc3ccc(N4CCOCC4)cc3)c2cn1 [I-030] |
| <24 | 49 | 1.3 | 66 | CN(C)C(=O)[C@H]1CCN(c2ccc(Oc3ccnc4c(Cl)cncc34)cc2)C1 [I-007] |
| 50 | 57 | 1.3 | – | CN(CCO)C(=O)[C@H]1CCN(c2ccc(Oc3ccnc4c(Cl)cncc34)cc2)C1 [I-010] |
| <24 | 25 | 2.7 | 42 | CN(C)C(=O)Cn1cc(-c2ccc(Oc3ccnc4c(Cl)cncc34)cc2)cn1 [I-043] |
| – | – | 4.5 | – | CC(=O)N1CCN(c2ccc(Oc3cc(N(C)C)nc4ccncc34)cc2)CC1 [I-027] |

| HLM [% QH] [1] [% QH] | MLM [% QH] [2] [% QH] | IC50 (CDK8/cyclin C) [nM] | RLM [% QH] [3] [% QH] | Structure (SMILES) |
| --- | --- | --- | --- | --- |
| <24 | <24 | 1.8 | 24 | CN(CCO)C(=O)[C@H]1CCN(c2ccc(Oc3ccnc4c(F)cncc34)cc2)C1 [I-017, (S)-1-[4-(8-fluoro-[1,6]naphthyridin-4-yloxy)-phenyl]-pyrrolidine-3-carboxylic acid (2-hydroxy-ethyl)-methyl-amide] |
| 44 | 59 | 1.2 | – | O=C([C@H]1CCN(c2ccc(Oc3ccnc4c(Cl)cncc34)cc2)C1)N1CCOCC1 [I-013] |
| – | – | 3.4 | – | Fc1cncc2c(Oc3ccc(N4CCCC4)cc3)ccnc12 [I-002] |
| – | – | 11.1 | – | CN1CCN(c2ccc(Oc3ccnc4ccncc34)cc2)CC1 [I-028] |
| <24 | <24 | 4.8 | 32 | CN(C)C(=O)CCOc1ccc(Oc2ccnc3c(F)cncc23)cc1 [I-036] |
| – | – | < 1 | – | CN1CCN(C(=O)[C@@H]2CCN(c3ccc(Oc4ccnc5c(F)cncc45)cc3)C2)CC1 [I-021] |
| – | – | 5 | – | Cc1cncc2c(Oc3ccc(-c4cnn(CC(=O)N(C)C)c4)cc3)ccnc12 [I-041] |
| – | – | 1.3 | – | CN1CCN(C(=O)[C@H]2CCN(c3ccc(Oc4ccnc5c(Cl)cncc45)cc3)C2)CC1 [I-012] |
| 30 | 44 | 1.2 | 55 | CN(C)C(=O)[C@@H]1CCN(c2ccc(Oc3ccnc4c(Cl)cncc34)cc2)C1 [I-018] |
| – | – | 3.9 | – | CC(=O)NC1CN(c2ccc(Oc3ccnc4c(F)cncc34)cc2)C1 [I-033] |
| – | – | 2.4 | – | Clc1cncc2c(Oc3ccc(N4CCCC4)cc3)ccnc12 [I-003] |
| – | – | 1.7 | – | Cc1cncc2c(Oc3ccc(N4CC[C@H](C(=O)N(C)C)C4)cc3)ccnc12 [I-014] |
| – | – | 1.5 | – | COCCN(C)C(=O)[C@H]1CCN(c2ccc(Oc3ccnc4c(Cl)cncc34)cc2)C1 [I-011] |
| 29 | 36 | 16.6 | 57 | Fc1cncc2c(Oc3ccc(N4CCn5ccnc5C4)cc3)ccnc12 [I-029] |
| <24 | <24 | 1.4 | <24 | CC(=O)N(C)[C@H]1CCN(c2ccc(Oc3ccnc4c(F)cncc34)cc2)C1 [I-024] |
| <24 | <24 | 1.5 | 43 | CN(C)C(=O)[C@H]1CCN(c2ccc(Oc3ccnc4c(F)cncc34)cc2)C1 [I-015] |
| – | – | 1.6 | – | O=C1CCCN1[C@H]1CCN(c2ccc(Oc3ccnc4c(F)cncc34)cc2)C1 [I-025] |
| – | – | 14 | – | COc1cc(Oc2ccc(N3CCN(C(C)=O)CC3)cc2)c2cnccc2n1 [I-034] |
| <24 | <24 | 3.7 | 35 | CN1CCC(COc2ccc(Oc3ccnc4c(F)cncc34)cc2)C1=O (centres unmarked) [I-035] |
| 28 | 42 | 4.7 | 29 | CC(=O)N1CCN(c2ccc(Oc3ccnc4ccncc34)cc2)CC1 [I-031] |
